# Data as given in US20260139328A1, “NOVEL MICROBIAL GENOTOXINS” (Yale University, priority 2022, published 2026).
# Key:
# HeLa cells [1] = tested on: HeLa cells
# HeLa cells [2] = test: alkaline comet unwinding assay in HeLa cells; assay type: cell-based, human; conditions: 100 μg/ml synthetic compounds, 5-6 h
# Protocol: To assess DNA damage using chemical extracts of bacterial metabolites, HeLa, MC38 or HCT116 cells were treated with 5 mg/ml ethyl-acetate extracts diluted in culture medium supplemented with 10 mM HEPES for 4-6 h.
# To assess DNA damage using pure compounds, HeLa cells were treated with 100 µg/ml cisplatin, 100 μg/ml, 25 μg/ml, or 10 μg/ml indolimine-214 (1), compound 2, indolimine-200 (3), indolimine-248 (4) or 0.1% DMSO diluted in culture medium supplemented with 10 mM HEPES for 4-6 h.
# After treatment with ethyl-acetate extracts or pure synthetic compounds, HeLa cells were washed with PBS and collected via trypsinization. DNA damage was assessed via alkaline single cell gel electrophoresis using the Trevigen Comet Assay kit (Trevigen, Inc.) according to the manufacturer's instructions. Briefly, cells were embedded in Comet LMAgarose and loaded onto CometSlide™. Slides were placed flat at 4° C. in the dark for 10 min and then immersed overnight in Lysis Solution at 4° C. […] Comet images were acquired using a Leica DMRB fluorescence microscope. Tail DNA % (Tail DNA content as a percentage of Comet DNA content) and Tail moment (Tail length multiplied by Tail DNA %) were analyzed with OpenComet v1.3.1., and 20-50 comets were recorded for each sample.
# [3] = tested on: circular pUC19 plasmid DNA
# [4] = NMR analysis of synthetic indolimine-214 after preparative HPLC purification; conditions: upon preparative HPLC purification; reversible reaction in water
SMILES,γ-H2AX in HeLa cells (HeLa cells [1]),tailing in alkaline comet unwinding assay (HeLa cells [2]),DNA damage of circular pUC19 plasmid [3],"genotoxicity (γ-H2AX, HeLa) in relation to purity (HeLa cells [1])",degradation into the two starting materials [4]
CC(C)C/N=C/c1c[nH]c2ccccc12 [indolimine-200 (3)],triggered increased 7-H2AX in HeLa cells in a dose-dependent manner,,,,
CC(C)CCN=Cc1c[nH]c2ccccc12 [indolimine-214 (1)],triggered increased γ-H2AX in a dose-dependent manner,induced tailing,neither synthetic indolimine-214 (1) nor compound 2 alone (up to 1 mg/ml) induced DNA damage,correlated directly with its purity,≥ 20%
C(=N\CCc1ccccc1)/c1c[nH]c2ccccc12 [indolimine-248 (4)],triggered increased 7-H2AX in HeLa cells in a dose-dependent manner,,,,
